Laboratory results reported in patent publication EP2929883A1, “Pyrazole derivatives as dihydroorotate dehydrogenase (DHODH) inhibitors” (INSTITUT PASTEUR, priority 2014, dated 2015).
Converted amounts (≈) assume the structure as drawn.

Test system: measles virus
Test: microbe, parasite or virus in culture
Settings: Measles morbillivirus, 24 h

`CCOc1nn(-c2ccccn2)c2c1CCN(Cc1ccccc1)C2` [example 1, 6-benzyl-3-ethoxy-1-(pyridin-2-yl)-4,5,6,7-tetrahydro-1H-pyrazolo[3,4-c]pyridine] and `CCOc1nn(-c2ccccn2)c(C)c1Cc1ccccc1` [example 30, 2-(4-benzyl-3-ethoxy-5-methyl-1H-pyrazol-1-yl)pyridine] cannot be ordered by MIC50: greater than 5 µM for the first, greater than 5 µM for the second.

First: CCOc1cc(Cc2ccccc2)n(-c2ncc(CC)cn2)n1 [example 2, 2-(5-benzyl-3-ethoxy-1H-pyrazol-1-yl)-5-ethylpyrimidine]
Second: CCOc1nn(-c2ncc(CC)cn2)c(C)c1Cc1ccccc1 [example 25, 2-(4-benzyl-3-ethoxy-5-methyl-1H-pyrazol-1-yl)-5-ethylpyrimidine]
The MIC50 of the first is higher: greater than 5 µM for the first, 0.0005 to 0.05 µM (≈ 0.000161 to 0.0161 µg/mL) for the second.

Compared with `CCOc1cc(Cc2ccccc2)n(-c2ccccn2)n1` [example 3, 2-(5-benzyl-3-ethoxy-1H-pyrazol-1-yl)pyridine], `CCOc1nn(-c2cc(C)ccn2)c(C)c1Cc1ccccc1` [example 32, 2-(4-benzyl-3-ethoxy-5-methyl-1H-pyrazol-1-yl)-4-methylpyridine] is lower in MIC50: greater than 5 µM for the first, 0.5 to 5 µM (≈ 0.154 to 1.54 µg/mL) for the second.

First: Cc1c(Oc2c(F)cccc2F)c(OC(C)C)nn1-c1ccccn1 [example 4, 2-(4-(2,6-difluorophenoxy)-3-isopropoxy-5-methyl-1H-pyrazol-1-yl)pyridine]
Second: Cc1ccc(-n2nc(OC(C)C)c(Oc3c(F)cccc3F)c2C)nc1 [example 9A, 2-(4-(2,6-difluorophenoxy)-3-isopropoxy-5-methyl-1H-pyrazol-1-yl)-5-methylpyridine]
The MIC50 of the first is higher: greater than 5 µM for the first, 0.0005 to 0.05 µM (≈ 0.00018 to 0.018 µg/mL) for the second.

`CCc1cnc(-n2nc(OC(C)C)c(Oc3c(F)cccc3F)c2C)c(F)c1` [example 5A, 2-(4-(2,6-difluorophenoxy)-3-isopropoxy-5-methyl-1H-pyrazol-1-yl)-5-ethyl-3-fluoropyridine] and `CCc1ccc(-n2nc(OC(C)C)c(Oc3c(F)cccc3F)c2C)nc1` [example 9B, 2-(4-(2,6-difluorophenoxy)-3-isopropoxy-5-methyl-1H-pyrazol-1-yl)-5-ethylpyridine] fall in the same range of MIC50: 0.05 to 0.5 µM (≈ 0.0196 to 0.196 µg/mL) for the first, 0.05 to 0.5 µM (≈ 0.0187 to 0.187 µg/mL) for the second.

Compared with `CCCc1cnc(-n2nc(OC(C)C)c(Oc3c(F)cccc3F)c2C)nc1` [example 6, 2-(4-(2,6-difluorophenoxy)-3-isopropoxy-5-methyl-1H-pyrazol-1-yl)-5-propylpyrimidine], `Cc1c(Oc2c(F)cccc2F)c(OC(C)C)nn1-c1ncc(F)cn1` [example 14, 2-(4-(2,6-difluorophenoxy)-3-isopropoxy-5-methyl-1H-pyrazol-1-yl)-5-fluoropyrimidine] is higher in MIC50: 0.0005 to 0.05 µM (≈ 0.000194 to 0.0194 µg/mL) for the first, 0.05 to 0.5 µM (≈ 0.0182 to 0.182 µg/mL) for the second.

`Cc1c(Oc2c(F)cccc2F)c(OC(C)C)nn1-c1ccc(C2CC2)nn1` [example 7, 3-cyclopropyl-6-(4-(2,6-difluorophenoxy)-3-isopropoxy-5-methyl-1H-pyrazol-1-yl)pyridazine] and `Cc1c(Oc2c(F)cccc2F)c(OC(C)C)nn1-c1ccc(C2CC2)cn1` [example 9, 5-cyclopropyl-2-(4-(2,6-difluorophenoxy)-3-isopropoxy-5-methyl-1H-pyrazol-1-yl)pyridine] fall in the same range of MIC50: 0.0005 to 0.05 µM (≈ 0.000193 to 0.0193 µg/mL) for the first, 0.0005 to 0.05 µM (≈ 0.000193 to 0.0193 µg/mL) for the second.

`CCc1cnc(-n2nc(OC(C)C)c(Cc3cccc(F)c3)c2C)nc1` [example 11, 5-ethyl-2-(4-(3-fluorobenzyl)-3-isopropoxy-5-methyl-1H-pyrazol-1-yl)pyrimidine] and `CCc1cnc(-n2nc(OC(C)C)c(Cc3ccc(F)cc3)c2C)nc1` [example 24, 5-ethyl-2-(4-(4-fluorobenzyl)-3-isopropoxy-5-methyl-1H-pyrazol-1-yl)pyrimidine] fall in the same range of MIC50: 0.0005 to 0.05 µM (≈ 0.000177 to 0.0177 µg/mL) for the first, 0.0005 to 0.05 µM (≈ 0.000177 to 0.0177 µg/mL) for the second.

Compared with `Cc1ccc(-n2nc(OC(C)C)c(Oc3c(F)cccc3F)c2C)nn1` [example 12, 3-(4-(2,6-difluorophenoxy)-3-isopropoxy-5-methyl-1H-pyrazol-1-yl)-6-methylpyridazine], `Cc1c(Oc2c(F)cccc2F)c(OC(C)C)nn1-c1ccc(Cl)nn1` [example 15, 3-chloro-6-(4-(2,6-difluorophenoxy)-3-isopropoxy-5-methyl-1H-pyrazol-1-yl)pyridazine] is higher in MIC50: 0.0005 to 0.05 µM (≈ 0.00018 to 0.018 µg/mL) for the first, 0.05 to 0.5 µM (≈ 0.019 to 0.19 µg/mL) for the second.

`Cc1c(Oc2c(F)cccc2F)c(OC(C)C)nn1-c1ncc(C2CC2)cn1` [example 13, 5-cyclopropyl-2-(4-(2,6-difluorophenoxy)-3-isopropoxy-5-methyl-1H-pyrazol-1-yl)pyrimidine] and `Cc1c(Oc2cccc(F)c2F)c(OC(C)C)nn1-c1ccc(C2CC2)cn1` [example 16, 5-cyclopropyl-2-(4-(2,3-difluorophenoxy)-3-isopropoxy-5-methyl-1H-pyrazol-1-yl)pyridine] fall in the same range of MIC50: 0.0005 to 0.05 µM (≈ 0.000193 to 0.0193 µg/mL) for the first, 0.0005 to 0.05 µM (≈ 0.000193 to 0.0193 µg/mL) for the second.

First: Cc1c(Oc2ccc(F)cc2F)c(OC(C)C)nn1-c1ccc(C2CC2)cn1 [example 17, 5-cyclopropyl-2-(4-(2,4-difluorophenoxy)-3-isopropoxy-5-methyl-1H-pyrazol-1-yl)pyridine]
Second: Cc1c(Oc2cc(F)ccc2F)c(OC(C)C)nn1-c1ccc(C2CC2)cn1 [example 18, 5-cyclopropyl-2-(4-(2,5-difluorophenoxy)-3-isopropoxy-5-methyl-1H-pyrazol-1-yl)pyridine]
The MIC50 of the first is higher: 0.05 to 0.5 µM (≈ 0.0193 to 0.193 µg/mL) for the first, 0.0005 to 0.05 µM (≈ 0.000193 to 0.0193 µg/mL) for the second.

`CCc1cnc(-n2nc(OC(C)C)c(Oc3cc(F)ccc3F)c2C)nc1` [example 19, 2-(4-(2,5-difluorophenoxy)-3-isopropoxy-5-methyl-1H-pyrazol-1-yl)-5-ethylpyrimidine] and `CCc1cnc(-n2nc(OC(C)C)c(Cc3ccccc3F)c2C)nc1` [example 23, 5-ethyl-2-(4-(2-fluorobenzyl)-3-isopropoxy-5-methyl-1H-pyrazol-1-yl)pyrimidine] fall in the same range of MIC50: 0.0005 to 0.05 µM (≈ 0.000187 to 0.0187 µg/mL) for the first, 0.0005 to 0.05 µM (≈ 0.000177 to 0.0177 µg/mL) for the second.

Compared with `Cc1c(Cc2ccccc2)c(OC(C)C)nn1-c1ncc(C2CC2)cn1` [example 21, 2-(4-benzyl-3-isopropoxy-5-methyl-1H-pyrazol-1-yl)-5-cyclopropylpyrimidine], `Cc1nn(-c2ncc(C3CC3)cn2)c(OC(C)C)c1Cc1ccccc1` [example 22, 2-(4-benzyl-5-isopropoxy-3-methyl-1H-pyrazol-1-yl)-5-cyclopropylpyrimidine] is higher in MIC50: 0.0005 to 0.05 µM (≈ 0.000174 to 0.0174 µg/mL) for the first, 0.05 to 0.5 µM (≈ 0.0174 to 0.174 µg/mL) for the second.

Compared with `CCOc1c(Cc2ccccc2)c(C)nn1-c1ncc(CC)cn1` [example 26, 2-(4-benzyl-5-ethoxy-3-methyl-1H-pyrazol-1-yl)-5-ethylpyrimidine], `CCCc1cnc(-n2nc(OCC)c(Cc3ccccc3)c2C)nc1` [example 27, 2-(4-benzyl-3-ethoxy-5-methyl-1H-pyrazol-1-yl)-5-propylpyrimidine] is lower in MIC50: 0.5 to 5 µM (≈ 0.161 to 1.61 µg/mL) for the first, 0.0005 to 0.05 µM (≈ 0.000168 to 0.0168 µg/mL) for the second.

Compared with `CCCCCc1cnc(-n2nc(OCC)c(Cc3ccccc3)c2C)nc1` [example 28, 2-(4-benzyl-3-ethoxy-5-methyl-1H-pyrazol-1-yl)-5-pentylpyrimidine], `CCOc1nn(-c2ncc(C3CC3)cn2)c(C)c1Cc1ccccc1` [example 29, 2-(4-benzyl-3-ethoxy-5-methyl-1H-pyrazol-1-yl)-5-cyclopropylpyrimidine] is lower in MIC50: greater than 5 µM for the first, 0.0005 to 0.05 µM (≈ 0.000167 to 0.0167 µg/mL) for the second.

Compared with `CCOc1nn(-c2ccc(C)cn2)c(C)c1Cc1ccccc1` [example 31, 2-(4-benzyl-3-ethoxy-5-methyl-1H-pyrazol-1-yl)-5-methylpyridine], `CCOc1nn(-c2cccc(C)n2)c(C)c1Cc1ccccc1` [example 33, 2-(4-benzyl-3-ethoxy-5-methyl-1H-pyrazol-1-yl)-6-methylpyridine] is higher in MIC50: 0.5 to 5 µM (≈ 0.154 to 1.54 µg/mL) for the first, greater than 5 µM for the second.

Same assay, conditions: Measles morbillivirus, HEK-293T, read-out: IC50 on the measles virus

For `Cc1c(-c2ccc(-c3ccccc3F)cc2)nc2ccc(F)cc2c1C(=O)O` [brequinar, reference compound], the IC50 was 40 nM.
